Reference: patent US11541104B2, “Method for preventing or treating osteoporosis, characterized by administering teriparatide or salt thereof at a frequency of twice a week” (ASAHI KASEI PHARMA CORPORATION, priority 2018, dated 2023)

Columns and labels:
Format in all cases: in vivo, rabbit
[1] = system: six-month old female rabbits; test: Bone strength of tibiae of rabbits, three-point bending strength; details: for Maximum load, bone strength of tibiae: 140 μg/kg per week, subcutaneous, 4 weeks; for Maximum load, three-point bending strength of the tibiae: versus control group
Procedure: (§1) To evaluate the influences of the administration frequencies of teriparatide on the bone metabolism and the bone tissue morphology, six-month old female rabbits were subcutaneously administered with an agent in a manner that a weekly dosage of teriparatide was adjusted to 140 μg/kg at a frequency of once a week, twice a week or seven times a week over 4 weeks, or with a control drug without containing teriparatide at a frequency of seven times a week over 4 weeks (Table 2-54). Also, the bone mineral density and the bone strength of the tibiae were measured. The teriparatide solution which was administered was appropriately prepared by dissolving teriparatide acetate in a water for injection, filtering the solution, filling the filtrate in a vial, freeze-drying to give a preparation, and dissolving the preparation in a physiological saline upon use.
Three-point bending strength of the tibiae collected after the end of the administration period was measured.

[2] = system: six-month old female rabbits; test: Bone tissue morphology of diaphysis of tibiae of rabbits
Procedure: as §1

[3] = system: six-month old female rabbits; test: Bone mineral densities of tibiae of rabbits (Working Example 2); details: 4 weeks; for Bone mineral densities in proximal part (1/5 site) of the tibiae: 140 μg/kg per week; for Bone mineral densities in the proximal part (1/5 site) of the tibiae: weekly dosage 140 μg/kg
Procedure: as §1
The bone mineral densities of the tibiae were analyzed in divided regions.

[4] = group administered seven times a week
[5] = group administered twice a week

SMILES: CC[C@H](C)[C@H](NC(=O)[C@H](CCC(=O)O)NC(=O)[C@H](CO)NC(=O)[C@@H](NC(=O)[C@@H](N)CO)C(C)C)C(=O)N[C@@H](CCC(N)=O)C(=O)N[C@@H](CC(C)C)C(=O)N[C@@H](CCSC)C(=O)N[C@@H](Cc1cnc[nH]1)C(=O)N[C@@H](CC(N)=O)C(=O)N[C@@H](CC(C)C)C(=O)NCC(=O)N[C@@H](CCCCN)C(=O)N[C@@H](Cc1cnc[nH]1)C(=O)N[C@@H](CC(C)C)C(=O)N[C@@H](CC(N)=O)C(=O)N[C@@H](CO)C(=O)N[C@@H](CCSC)C(=O)N[C@@H](CCC(=O)O)C(=O)N[C@@H](CCCN=C(N)N)C(=O)N[C@H](C(=O)N[C@@H](CCC(=O)O)C(=O)N[C@@H](Cc1c[nH]c2ccccc12)C(=O)N[C@@H](CC(C)C)C(=O)N[C@@H](CCCN=C(N)N)C(=O)N[C@@H](CCCCN)C(=O)N[C@@H](CCCCN)C(=O)N[C@@H](CC(C)C)C(=O)N[C@@H](CCC(N)=O)C(=O)N[C@@H](CC(=O)O)C(=O)N[C@H](C(=O)N[C@@H](Cc1cnc[nH]1)C(=O)N[C@@H](CC(N)=O)C(=O)N[C@@H](Cc1ccccc1)C(=O)O)C(C)C)C(C)C [teriparatide]
- Maximum load, bone strength of tibiae ([1]; Group administered once a week): 583.81 N
- Maximum load, bone strength of tibiae ([1]; Group administered seven times a week): 656.09 N
- Maximum load, bone strength of tibiae ([1]; Group administered twice a week): 624.41 N
- Maximum load, three-point bending strength of the tibiae [1, 4]: higher values
- Maximum load, three-point bending strength of the tibiae [1, 5]: higher values
- Bone tissue morphology of diaphysis of tibiae ([2]; group administered once a week): none of these findings were observed
- Bone tissue morphology of diaphysis of tibiae [2, 4]: formation of trabecular bones on the endocortical surfaces, a large number of intracortical voids (increase of cortical porosity), and disorderedness in a lamellar structure were observed
- Bone tissue morphology of diaphysis of tibiae [2, 5]: none of these findings were observed
- Bone mineral densities in proximal part (1/5 site) of the tibiae ([3]; Group administered once a week, subcutaneous): 272.5 ± 13.6 mg/cm^2
- Bone mineral densities in proximal part (1/5 site) of the tibiae ([3]; Group administered twice a week, subcutaneous): 278.8 ±9.8 mg/cm^2
- Bone mineral densities in the proximal part (1/5 site) of the tibiae [3, 5]: higher value than that of the group administered once a week
- Bone mineral densities in the proximal part (1/5 site) of the tibiae ([3]; subcutaneous, as compared to control group): remarkably increased
